{"source": "PubChem BioAssay AID1963835", "about": "(Molecular Pharmacology Branch, DTP, NCI, 2024)", "system": "699152-130-R-J1-PDC complex spheroid viability", "assay": "Anticancer human tumor 699152-130-R-J1-PDC patient-derived pancreatic carcinoma cell line growth inhibition [POLQ]", "details": "for IC50: curve of first compound; for viability, T/C: stronger effect = lower value", "procedure,_shortened": "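PDC + HUVEC + MSC complex spheroids; POLQ inhibitors ± partner drugs; top conc. at/near clinical Cmax, else 10 microM (SN-38 1 microM), half-log dilutions; 37 degrees C, 5% CO2.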", "key": {"[1]": {"details": "second compound 0.0316 µM, first compound 0.0316 µM"}, "[2]": {"details": "second compound 0.0316 µM, first compound 0.1 µM"}, "[3]": {"details": "second compound 0.0316 µM, first compound 0.316 µM"}, "[4]": {"details": "second compound 0.0316 µM, first compound 1 µM"}, "[5]": {"details": "second compound 0.1 µM, first compound 0.0316 µM"}, "[6]": {"details": "second compound 0.1 µM, first compound 0.1 µM"}, "[7]": {"details": "second compound 0.1 µM, first compound 0.316 µM"}, "[8]": {"details": "second compound 0.1 µM, first compound 1 µM"}, "[9]": {"details": "second compound 0.316 µM, first compound 0.0316 µM"}, "[10]": {"details": "second compound 0.316 µM, first compound 0.1 µM"}, "[11]": {"details": "second compound 0.316 µM, first compound 0.316 µM"}, "[12]": {"details": "second compound 0.316 µM, first compound 1 µM"}, "[13]": {"details": "second compound 1 µM, first compound 0.0316 µM"}, "[14]": {"details": "second compound 1 µM, first compound 0.1 µM"}, "[15]": {"details": "second compound 1 µM, first compound 0.316 µM"}, "[16]": {"details": "second compound 1 µM, first compound 1 µM"}, "[17]": {"details": "second compound 3.16 µM, first compound 0.0316 µM"}, "[18]": {"details": "second compound 3.16 µM, first compound 0.1 µM"}, "[19]": {"details": "second compound 3.16 µM, first compound 0.316 µM"}, "[20]": {"details": "second compound 3.16 µM, first compound 1 µM"}, "[21]": {"details": "second compound 10 µM, first compound 0.0316 µM"}, "[22]": {"details": "second compound 10 µM, first compound 0.1 µM"}, "[23]": {"details": "second compound 10 µM, first compound 0.316 µM"}, "[24]": {"details": "second compound 10 µM, first compound 1 µM"}}}
{"molecule": "CCc1c2c(nc3ccc(O)cc13)-c1cc3c(c(=O)n1C2)COC(=O)[C@]3(O)CC", "note": "+ Nc1ccc(C#CCN(C(=O)Cc2ncc(C(F)(F)F)cc2C(F)(F)F)c2ccc(F)cc2)nn1;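 further: spheroids exposed to agents for 7 days before viability reading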;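 on viability, T/C: percent of DMSO vehicle control viability so 100% = vehicle and 0% = no viable signal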", "values": [{"measurement": "IC50", "setting": "second compound 0.0316 µM", "value": 0.0602, "unit": "µM"}, {"measurement": "IC50", "setting": "second compound 0.1 µM", "value": 0.0483, "unit": "µM"}, {"measurement": "IC50", "setting": "second compound 0.316 µM", "value": 0.0668, "unit": "µM"}, {"measurement": "IC50", "setting": "second compound 1 µM", "value": 0.0363, "unit": "µM"}, {"measurement": "IC50", "setting": "second compound 3.16 µM", "value": 0.0555, "unit": "µM"}, {"measurement": "IC50", "setting": "second compound 10 µM", "value": 0.0495, "unit": "µM"}, {"measurement": "viability, T/C", "setting": "second compound 0.0316 µM, first compound 0.00316 µM", "value": 82.1, "unit": "%"}, {"measurement": "viability, T/C", "setting": "second compound 0.0316 µM, first compound 0.01 µM", "value": 55.2, "unit": "%"}, {"measurement": "viability, T/C", "setting": "[1]", "value": 58.4, "unit": "%"}, {"measurement": "viability, T/C", "setting": "[2]", "value": 47.2, "unit": "%"}, {"measurement": "viability, T/C", "setting": "[3]", "value": 36.4, "unit": "%"}, {"measurement": "viability, T/C", "setting": "[4]", "value": 11.4, "unit": "%"}, {"measurement": "viability, T/C", "setting": "second compound 0.1 µM, first compound 0.00316 µM", "value": 83.1, "unit": "%"}, {"measurement": "viability, T/C", "setting": "second compound 0.1 µM, first compound 0.01 µM", "value": 57.4, "unit": "%"}, {"measurement": "viability, T/C", "setting": "[5]", "value": 52, "unit": "%"}, {"measurement": "viability, T/C", "setting": "[6]", "value": 48.3, "unit": "%"}, {"measurement": "viability, T/C", "setting": "[7]", "value": 32.6, "unit": "%"}, {"measurement": "viability, T/C", "setting": "[8]", "value": 12.6, "unit": "%"}, {"measurement": "viability, T/C", "setting": "second compound 0.316 µM, first compound 0.00316 µM", "value": 72.7, "unit": "%"}, {"measurement": "viability, T/C", "setting": "second compound 0.316 µM, first compound 0.01 µM", "value": 61.6, "unit": "%"}, {"measurement": "viability, T/C", "setting": "[9]", "value": 55.8, "unit": "%"}, {"measurement": "viability, T/C", "setting": "[10]", "value": 47.1, "unit": "%"}, {"measurement": "viability, T/C", "setting": "[11]", "value": 32, "unit": "%"}, {"measurement": "viability, T/C", "setting": "[12]", "value": 8.12, "unit": "%"}, {"measurement": "viability, T/C", "setting": "second compound 1 µM, first compound 0.00316 µM", "value": 74.7, "unit": "%"}, {"measurement": "viability, T/C", "setting": "second compound 1 µM, first compound 0.01 µM", "value": 55.2, "unit": "%"}, {"measurement": "viability, T/C", "setting": "[13]", "value": 51.2, "unit": "%"}, {"measurement": "viability, T/C", "setting": "[14]", "value": 44.3, "unit": "%"}, {"measurement": "viability, T/C", "setting": "[15]", "value": 30.5, "unit": "%"}, {"measurement": "viability, T/C", "setting": "[16]", "value": 14.9, "unit": "%"}, {"measurement": "viability, T/C", "setting": "second compound 3.16 µM, first compound 0.00316 µM", "value": 88.7, "unit": "%"}, {"measurement": "viability, T/C", "setting": "second compound 3.16 µM, first compound 0.01 µM", "value": 66.4, "unit": "%"}, {"measurement": "viability, T/C", "setting": "[17]", "value": 54.4, "unit": "%"}, {"measurement": "viability, T/C", "setting": "[18]", "value": 48.5, "unit": "%"}, {"measurement": "viability, T/C", "setting": "[19]", "value": 29.6, "unit": "%"}, {"measurement": "viability, T/C", "setting": "[20]", "value": 10.8, "unit": "%"}, {"measurement": "viability, T/C", "setting": "second compound 10 µM, first compound 0.00316 µM", "value": 92.2, "unit": "%"}, {"measurement": "viability, T/C", "setting": "second compound 10 µM, first compound 0.01 µM", "value": 71.2, "unit": "%"}, {"measurement": "viability, T/C", "setting": "[21]", "value": 52.2, "unit": "%"}, {"measurement": "viability, T/C", "setting": "[22]", "value": 44.2, "unit": "%"}, {"measurement": "viability, T/C", "setting": "[23]", "value": 27.7, "unit": "%"}, {"measurement": "viability, T/C", "setting": "[24]", "value": 9.98, "unit": "%"}]}
{"molecule": "CCCS(=O)(=O)Nc1ccc(F)c(C(=O)c2c[nH]c3ncc(-c4ccc(Cl)cc4)cc23)c1F", "note": "+ Cc1cccc(N(C)C(=O)C2C(O)CCN2c2nc(C)cc(C(F)(F)F)c2C#N)c1", "values": [{"measurement": "IC50", "setting": "second compound 0.0316 µM", "value": 8.18, "unit": "µM"}, {"measurement": "IC50", "setting": "second compound 0.1 µM", "value": 8.55, "unit": "µM"}, {"measurement": "IC50", "setting": "second compound 0.316 µM", "value": 8.18, "unit": "µM"}, {"measurement": "IC50", "setting": "second compound 1 µM", "value": 8.6, "unit": "µM"}, {"measurement": "IC50", "setting": "second compound 3.16 µM", "value": 8.56, "unit": "µM"}, {"measurement": "IC50", "setting": "second compound 10 µM", "value": 8.17, "unit": "µM"}, {"measurement": "viability, T/C", "setting": "[1]", "value": 110, "unit": "%"}, {"measurement": "viability, T/C", "setting": "[2]", "value": 101, "unit": "%"}, {"measurement": "viability, T/C", "setting": "[3]", "value": 120, "unit": "%"}, {"measurement": "viability, T/C", "setting": "[4]", "value": 162, "unit": "%"}, {"measurement": "viability, T/C", "setting": "second compound 0.0316 µM, first compound 3.16 µM", "value": 175, "unit": "%"}, {"measurement": "viability, T/C", "setting": "second compound 0.0316 µM, first compound 10 µM", "value": 32.2, "unit": "%"}, {"measurement": "viability, T/C", "setting": "[5]", "value": 105, "unit": "%"}, {"measurement": "viability, T/C", "setting": "[6]", "value": 103, "unit": "%"}, {"measurement": "viability, T/C", "setting": "[7]", "value": 126, "unit": "%"}, {"measurement": "viability, T/C", "setting": "[8]", "value": 143, "unit": "%"}, {"measurement": "viability, T/C", "setting": "second compound 0.1 µM, first compound 3.16 µM", "value": 199, "unit": "%"}, {"measurement": "viability, T/C", "setting": "second compound 0.1 µM, first compound 10 µM", "value": 36.5, "unit": "%"}, {"measurement": "viability, T/C", "setting": "[9]", "value": 103, "unit": "%"}, {"measurement": "viability, T/C", "setting": "[10]", "value": 99.5, "unit": "%"}, {"measurement": "viability, T/C", "setting": "[11]", "value": 125, "unit": "%"}, {"measurement": "viability, T/C", "setting": "[12]", "value": 159, "unit": "%"}, {"measurement": "viability, T/C", "setting": "second compound 0.316 µM, first compound 3.16 µM", "value": 195, "unit": "%"}, {"measurement": "viability, T/C", "setting": "second compound 0.316 µM, first compound 10 µM", "value": 31.6, "unit": "%"}, {"measurement": "viability, T/C", "setting": "[13]", "value": 109, "unit": "%"}, {"measurement": "viability, T/C", "setting": "[14]", "value": 112, "unit": "%"}, {"measurement": "viability, T/C", "setting": "[15]", "value": 141, "unit": "%"}, {"measurement": "viability, T/C", "setting": "[16]", "value": 152, "unit": "%"}, {"measurement": "viability, T/C", "setting": "second compound 1 µM, first compound 3.16 µM", "value": 172, "unit": "%"}, {"measurement": "viability, T/C", "setting": "second compound 1 µM, first compound 10 µM", "value": 36.6, "unit": "%"}, {"measurement": "viability, T/C", "setting": "[17]", "value": 124, "unit": "%"}, {"measurement": "viability, T/C", "setting": "[18]", "value": 112, "unit": "%"}, {"measurement": "viability, T/C", "setting": "[19]", "value": 118, "unit": "%"}, {"measurement": "viability, T/C", "setting": "[20]", "value": 140, "unit": "%"}, {"measurement": "viability, T/C", "setting": "second compound 3.16 µM, first compound 3.16 µM", "value": 181, "unit": "%"}, {"measurement": "viability, T/C", "setting": "second compound 3.16 µM, first compound 10 µM", "value": 36.5, "unit": "%"}, {"measurement": "viability, T/C", "setting": "[21]", "value": 117, "unit": "%"}, {"measurement": "viability, T/C", "setting": "[22]", "value": 103, "unit": "%"}, {"measurement": "viability, T/C", "setting": "[23]", "value": 134, "unit": "%"}, {"measurement": "viability, T/C", "setting": "[24]", "value": 146, "unit": "%"}, {"measurement": "viability, T/C", "setting": "second compound 10 µM, first compound 3.16 µM", "value": 175, "unit": "%"}, {"measurement": "viability, T/C", "setting": "second compound 10 µM, first compound 10 µM", "value": 31.7, "unit": "%"}]}
